Measurements published in PMC9406419, “OATD-02 Validates the Benefits of Pharmacological Inhibition of Arginase 1 and 2 in Cancer” (Cancers, 2022).
Where two headings read alike, the source gives them in different places.

Tests used:
[1] = target: T1, recombinant human ARG2 (Homo sapiens, UniProt P78540); test: Recombinant arginase inhibition assay (colorimetric urea detection), ARG2; assay type: biochemical; conditions: recombinant human ARG2, 20 mM L-arginine, 37 °C, 1 h, pH 7.4
T1 construct: made in house; host or cells: E. coli
T1 sequence (P78540 23-354): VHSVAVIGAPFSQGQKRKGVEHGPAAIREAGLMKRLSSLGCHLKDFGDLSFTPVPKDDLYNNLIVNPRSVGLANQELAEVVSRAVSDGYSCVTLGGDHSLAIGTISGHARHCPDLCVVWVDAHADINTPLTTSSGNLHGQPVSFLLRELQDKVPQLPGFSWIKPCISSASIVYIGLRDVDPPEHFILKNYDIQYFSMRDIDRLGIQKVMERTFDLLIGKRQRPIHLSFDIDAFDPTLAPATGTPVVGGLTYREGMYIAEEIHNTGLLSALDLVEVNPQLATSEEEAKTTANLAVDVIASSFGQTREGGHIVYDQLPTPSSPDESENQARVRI
Description: Recombinant enzymes (ARG1 or ARG2) were produced at Molecure SA—biosynthesized in E. coli expression system, purified by fast protein liquid chromatography, and stored at −80 °C in the storage buffer (20 mM Tris pH 8.0, 100 mM NaCl, 10 mM DDT, 10% glycerol). The enzymatic reaction was carried out at 37 °C for 1 h in the assay buffer (100 mM sodium phosphate buffer, 130 mM NaCl, pH 7.4) with the addition of 1 mg/mL BSA in the presence of 200 µM MnCl2 (enzyme cofactor), 10 mM (for ARG1) or 20 mM (for ARG2) of L-arginine hydrochloride (enzyme substrate), and serial dilutions of the test compounds. The inhibition of the arginase activity was determined by colorimetric detection of produced urea, as previously described with minor changes. Briefly, 150 µL of freshly prepared developing reagent (2 mM o-phthaldialdehyde (OPA), 2 mM N-(1-naphthyl)ethylenediamine dihydrochloride (NED), 50 mM boric acid, 1 M sulfuric acid, 0.03% Brij-35) was added to each well, incubated for 20 min at RT, then the absorbance at 515 nm was measured. Normalized values were fitted to a four-parameter equation using GraphPad Prism and IC50 values were determined. […]

[2] = tested on: intracellular arginase in murine M2-polarized BMDMs; test: Cell-based arginase inhibition assay in murine M2-polarized bone marrow-derived macrophages (urea in supernatant); parameters: species or system mouse; conditions: 24 h incubation, 5 mM L-arginine, read-out: IC50, intracellular activity towards arginase-expressing immune cells
Description: The intracellular activity of OATD-02 arginase inhibitor was determined using murine M2-polarized macrophages. Bone marrow cells were collected from femur bones of C57BL/6 male mice. The cells suspended in DMEM medium (ThermoFisher, Waltham, MA, USA) supplemented with 5% FBS and 50 ng/mL M-CSF (PeproTech, Rocky Hill, NJ, USA) were poured through a 40 µm cell strainer and seeded into Petri dishes at 1 × 10^6 cells/mL for 2 days (37 °C, 5% CO2). Next, nonadherent cells were removed and fresh medium was added (DMEM, 5% FCS, 50 ng/mL M-CSF). The next day, the cells were dissociated using the CellStripper Dissociation Reagent (Corning, New York, NY, USA) and resuspended in the fresh DMEM medium containing 5% FCS, 50 ng/mL M-CSF, 20 ng/mL TGF-ß, and 30 ng/mL IL-4 (Biomibo, Warszawa, Poland). The cells were seeded into 96-well plates (64 × 10^3 cells/100 µL/well). […] Following 24 h incubation (37 °C, 5% CO2), the generated urea was detected by mixing 50 µL of the supernatant with 75 µL of the developing reagent (as described in the above section). Normalized absorbance values (515 nm) were fitted to a four-parameter equation using GraphPad Prism and IC50 values were determined. […] Normalized absorbance values (515 nm) were fitted to a four-parameter equation using GraphPad Prism and IC50 values were determined. […]

[3] = tested on: intracellular arginase in human primary hepatocytes; test: Liver arginase inhibition assay in human primary hepatocytes (urea in supernatant); assay type: cell-based; conditions: 24 h incubation, 5 mM L-arginine

| IC50 ([2]; Mus musculus, BMDM) [µM] | SMILES | IC50 [1] [µM] | IC50 ([3]; Hepatocyte) [µM] | IC50 [2] [µM] | IC50 [3] [µM] |
| --- | --- | --- | --- | --- | --- |
| 56.2 | C[C@H](N)C(=O)N1C[C@H](CCCB(O)O)[C@](N)(C(=O)O)C1 [ref. ARGi, numidargistat, reference compound] | 0.335 | 50.1 |  |  |
|  | CN(C)C[C@@H]1CC[C@@H](CCB(O)O)C[C@]1(N)C(=O)O [OATD-02] | 0.034 |  | 1.1 | 14.2 |
